According to patent publication US20050255111A1, “Use of an inhibitor or antagonist against tissue factor” (priority 2002, published 2005):

How the values were obtained:
[1] = tested on: IBMIR; test: IBMIR in vitro
[2] = tested on: TF; test: TF synthesis and secretion in cultured human islets (TF content by EIA); type: cell-based
Experimental: Islets were cultured for 24 h in CMRL-medium containing […] Nicotinamide, which is the standard medium used for islet culture. The medium was thereafter exchanged to CMRL-medium without Nicotinamid. After a baseline period of another 24 h, islets were handpicked for analysis of TF content. Culture was continued for 48 h with medium containing agents known to affect TF expression in monocytes and endothelial cells. These were, L-Arginin, Cyclosporin A, Enalapril, acetylcysteine and nicotinamid. The islets were harvested, the TF content analysed using a commercial EIA kit and the islets tested in the in vitro loop model.
Islets were cultured for 48 h in medium containing 0, 10, 25 and 50 mM Nicotinamid and the intracellular TF concentration assessed, see FIG. 6. The islets were also exposed to fresh human ABO compatible blood in the in vitro loop model. Samples were retrieved after 5, 15, 30 and 60 min and analysed for TAT, see FIG. 7.
Islets were cultured for 48 h in medium containing Enalapril (40 μg/ml), Cyclosporin A (10 μmol/L), L-Aginine (1 mmol/L), Nicotinamide (10 mmol/L) and the intracellular TF concentration assessed. The concentration of Tf is expressed as percentage of the untreated control, see FIG. 8.

Row | SMILES | IBMIR in vitro [1] | production of tissue factor in the islets (TF content) ([2]; nicotinamide 0 to 50 mM, 48 h culture) | secretion of TF ([2]; nicotinamide, dose dependent)
1 | N=C(N)c1ccc(CNC(=O)[C@@H]2CCN2C(=O)[C@H](NCC(=O)O)C2CCCCC2)cc1 [Melagatran] | abrogated |  | 
2 | NC(=O)c1cccnc1 [nicotinamide] |  | dose-dependently inhibited | inhibited
